Activity calls are given as the source filed them. No cut-off for these calls is given here.
What was measured:
[1] = biological target: Serum paraoxonase/arylesterase 1 (Homo sapiens) (UniProt P27169); test: Binding affinity to recombinant paraoxonase-1 (unknown origin) expressed in Escherichia coli
[2] = biological target: Serum paraoxonase/arylesterase 1 (Homo sapiens) (UniProt P27169); test: Binding affinity to recombinant paraoxonase-1 (unknown origin) expressed in Escherichia coli after 5 mins by Trp-fluorescence quenching method
[3] = biological target: Serum paraoxonase/arylesterase 1 (Homo sapiens) (UniProt P27169); test: Activation of recombinant paraoxonase-1 (unknown origin) expressed in Escherichia coli assessed as delaying of Cu2+-induced LDL oxidation time after 15 mins by UV ELISA

Chain of Serum paraoxonase/arylesterase 1 (Homo sapiens) (P27169 whole entry): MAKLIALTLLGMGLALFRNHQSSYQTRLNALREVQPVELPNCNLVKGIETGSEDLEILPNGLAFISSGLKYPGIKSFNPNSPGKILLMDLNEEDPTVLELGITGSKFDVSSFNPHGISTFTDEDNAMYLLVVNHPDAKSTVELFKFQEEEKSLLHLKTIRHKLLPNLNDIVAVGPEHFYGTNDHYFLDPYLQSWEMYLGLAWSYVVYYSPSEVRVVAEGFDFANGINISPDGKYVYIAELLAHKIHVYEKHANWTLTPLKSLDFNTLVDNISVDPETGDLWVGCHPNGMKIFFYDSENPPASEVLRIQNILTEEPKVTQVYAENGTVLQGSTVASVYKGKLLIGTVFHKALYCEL

SMILES: O=c1c(O)c(-c2ccc(O)c(O)c2)oc2cc(O)cc(O)c12
- Ka [1]: 1.28 ×10⁵ /M
- KSV [2]: 1.25 ×10⁵ /M
- Activity [3]: Active

SMILES: O=c1cc(-c2ccc(O)cc2)oc2cc(O)cc(O)c12
- Ka [1]: 1.13 ×10⁵ /M
- KSV [2]: 1.15 ×10⁵ /M

SMILES: O=c1c(O)c(-c2ccc(O)cc2)oc2cc(O)cc(O)c12
- Ka [1]: 1.43 ×10⁵ /M
- KSV [2]: 1.22 ×10⁵ /M

SMILES: O=c1cc(-c2ccc(O)c(O)c2)oc2cc(O)ccc12
- Ka [1]: 1.07 ×10⁵ /M
- KSV [2]: 0.87 ×10⁵ /M

SMILES: COc1ccc([C@@H]2CC(=O)c3c(O)cc(O)cc3O2)cc1O
- Ka [1]: 0.66 ×10⁵ /M
- KSV [2]: 0.6 ×10⁵ /M

SMILES: O=c1c(-c2ccc(O)cc2)coc2cc(O)ccc12
- Ka [1]: 1.13 ×10⁵ /M
- KSV [2]: 0.58 ×10⁵ /M

SMILES: Oc1cc(O)c2c(c1)OC(c1ccc(O)c(O)c1)C(O)C2 (stereo not given)
- Activity [3]: inactive

SMILES: O=c1cc(-c2ccc(O)cc2O)oc2ccccc12
- Ka [1]: 0.75 ×10⁵ /M
- KSV [2]: 0.54 ×10⁵ /M

SMILES: O=c1c(-c2ccc(O)cc2)coc2cc(O)cc(O)c12
- Ka [1]: 0.86 ×10⁵ /M
- KSV [2]: 0.64 ×10⁵ /M

SMILES: O=c1cc(-c2ccc(O)c(O)c2)oc2cc(O)cc(O)c12
- Ka [1]: 1.33 ×10⁵ /M
- KSV [2]: 1.34 ×10⁵ /M

SMILES: CC1(C)C=Cc2c(ccc3c2OC[C@@H](c2ccc(O)cc2O)C3)O1
- Ka [1]: 2.4 ×10⁵ /M
- KSV [2]: 1.93 ×10⁵ /M
- TIME [3]: 1.33 h

SMILES: O=C1C[C@@H](c2ccc(O)cc2)Oc2cc(O)cc(O)c21
- Ka [1]: 0.68 ×10⁵ /M
- KSV [2]: 0.35 ×10⁵ /M
